These results are taken from US8153630B2, “Kinase inhibitors” (Miikana Therapeutics, Inc., priority 2004, dated 2012).

The subject of one experiment is HCT 116 Cells. Description: Aurora kinase whole cell cytotoxicity assay: Sulforhodamine B. The format is cell-based. The settings on record: Homo sapiens, HCT116, SRB staining, 96 hours incubation. As for the experimental part: Human tumour-derived cell lines, HCT116 or MCF7 (ATCC) were plated in a 96 well plate in DMEM containing 10% fetal bovine serum and 2 mM L-glutamine at a density of 500 HCT116 cells or 1,000 MCF7 cells per well and incubated at 37° C., 5% CO2, for 24 hours prior to the addition of experimental compounds. Compounds were added using the dilution series indicated to duplicate plates and the cells were incubated in media plus compound for 96 hours. An additional plate was fixed in 10% TCA at the time of the addition of compound to provide a measurement of the cell population at time zero, the time of drug addition. Following the 96 hour incubation, cells were fixed in situ by gently aspirating off the culture media and then adding 50 ul of ice cold 10% TCA per well and incubation at 4° C. for 60 minutes. The plates were washed with tap water five times and allowed to air dry for 5 minute. 50 ul of a 0.4% (w/v) Sulforhodamine B solution in 1% (v/v) acetic acid was added per well and the cells were incubated for 30 minutes at room temperature. Following staining, plates were washed four times with 1% acetic acid to remove any unbound dye and then allowed to air dry for 5 minutes. The stain was solubilized with 100 ul of 10 mM Tris pH 10.5 per well and placed on an orbital rotator for 5 minutes. The absorbance was read at 570 nm. Percentage growth was calculated using the absorbance readings from the time zero plate (Tz) and the dilution series plate […] which included a column of cells grown in media without compound as a control (C) using the formulas: [(Ti−Tz)/(C−Tz)]×100 for concentrations for which Ti>/=Tz [(Ti−Tz)/Tz]×100 for concentrations for which Ti<Tz.
Three dose response parameters were calculated for each experimental agent. Growth inhibition of 50% (GI50) was calculated from [(Ti−Tz)/(C−Tz)]×100=50, which was the drug concentration resulting in a 50% reduction in the net protein increase (as measured by SRB staining) in control cells during the drug incubation. The drug concentration resulting in total growth inhibition (TGI) was calculated from Ti=Tz. The LC50 (concentration of drug resulting in a 50% reduction in the measured protein at the end of the drug treatment as compared to that at the beginning) indicating a net loss of cells following treatment ws calculated from [(Ti−Tz)/Tz]×100=−50. Values are calculated for each of these three parameters if the level of activity was reached; however, if the effect was not reached or was exceeded, the value for that parameter is expressed as greater or less than the maximum or minimum concentration tested.
(The SRB assay estimates cell density from bound dye.)

For another experiment, the target named is T1, recombinant Aurora A (Homo sapiens, UniProt O14965).
T1 construct: purchased Upstate, Lake Placid, N.Y
T1 sequence (O14965 1-403): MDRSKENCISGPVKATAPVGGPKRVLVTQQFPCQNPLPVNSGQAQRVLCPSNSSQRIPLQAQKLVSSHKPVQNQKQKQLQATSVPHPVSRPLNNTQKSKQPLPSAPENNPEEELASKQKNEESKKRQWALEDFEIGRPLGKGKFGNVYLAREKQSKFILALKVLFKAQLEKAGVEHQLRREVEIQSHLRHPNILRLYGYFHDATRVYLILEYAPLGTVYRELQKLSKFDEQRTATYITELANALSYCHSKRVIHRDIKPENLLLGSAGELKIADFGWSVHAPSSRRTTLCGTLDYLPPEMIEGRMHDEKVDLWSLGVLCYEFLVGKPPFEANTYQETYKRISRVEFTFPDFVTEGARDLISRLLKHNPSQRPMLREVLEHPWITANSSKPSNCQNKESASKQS
Description: PanVera Z'-Lyte Aurora kinase assay. The format is biochemical. Conditions: Z'-Lyte Ser/Thr 1 peptide 2 μM, ATP 10 μM, 1 h. As for the experimental part:
Compounds 7-14 above were tested for their potency against recombinant Aurora A (Upstate, Lake Placid, N.Y.) using the PanVera Z'-Lyte kinase assay kit—Ser/Thr 1 peptide (Invitrogen, Carlsbad, Calif.). Assays were carried out in kinase assay buffer (50 mM HEPES, pH 7.5, 10 mM MgCl2, 5 mM EGTA, 0.05% Brij-35, 2 mM DTT). Test compounds were initially dissolved in DMSO at 100× the highest tested concentration, then serially diluted to 4× test concentrations in kinase assay buffer. Next, Aurora A (final concentration 200-500 ng/mL), Z′-Lyte Ser/Thr 1 peptide (final concentration 2 μM) and ATP (final concentration 10 μM) were added according to the manufacturer's instructions. Assays were carried out in half-area 96-well white polystyrene assay plates (Corning, Corning, N.Y.) in a final volume of 20 μL. The reaction was allowed to proceed for 1 h at room temperature in the dark, at which point the development reagent and stop reagent were added according to the manufacturer's instructions. Coumarin (Ex. 400 nm, Em. 465 nm) and fluorescein (Ex. 400 nm, Em. 565 nm) fluorescence values were measured on a SpectraFluor Plus plate reader (Tecan, Durham, N.C.). The emission ratio (coumarin/fluorescein) was determined and used to calculate the percent phosphorylation for each well. Wells containing substrate but no kinase and wells containing a phosphopeptide control were used to set 0% and 100% phosphorylation values, respectively. Typically 20-40% of the substrate was phosphorylated in wells without inhibitor. Dose-response curves of relative Aurora A activity vs. inhibitor concentration were plotted with Grafit (Erithacus Software, Horley, Surrey, UK) and used to calculate IC50 values.

In another experiment the target is Aurora B kinase (Homo sapiens, UniProt Q96GD4). Description: Aurora B (Aurora 1) inhibition assay. The format is biochemical. The settings on record: compound concentration 100 μM; ATP 50 μM, 16 h; read-out: inhibition of the Aurora B enzyme.
Aurora B kinase, sequence (Q96GD4 whole entry): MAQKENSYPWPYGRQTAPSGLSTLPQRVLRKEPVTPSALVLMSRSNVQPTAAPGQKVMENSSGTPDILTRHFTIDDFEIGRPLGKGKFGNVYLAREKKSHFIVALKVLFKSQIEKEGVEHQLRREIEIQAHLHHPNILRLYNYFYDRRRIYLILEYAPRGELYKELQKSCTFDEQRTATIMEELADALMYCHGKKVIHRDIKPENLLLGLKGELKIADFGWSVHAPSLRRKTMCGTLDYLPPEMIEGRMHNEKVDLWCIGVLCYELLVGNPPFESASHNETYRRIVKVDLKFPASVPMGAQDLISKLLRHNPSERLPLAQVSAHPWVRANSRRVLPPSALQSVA

Broadly, the GI50 is the concentration giving 50% growth inhibition. As usually defined, the IC50 is the concentration that gives 50% inhibition. Broadly, the inhibition is how much of the control response was suppressed. In the experiment on HCT 116 Cells, `CCOC(=O)c1nc(Sc2ccc(NC(=O)C3CC3)cc2)nc(Nc2cc(C)[nH]n2)c1N` [Compound 11, Ethyl 2-(4-cyclopropanecarboxamidophenylsulfanyl)-5-amino-6-(5-methylpyrazol-3-ylamino)-4-pyrimidinecarboxylate] yielded a 50% growth inhibitory concentration (GI50) of 100 to 1000 nM. Besides, the concentration for half-maximal inhibition (IC50) on recombinant Aurora A is under 100 nM. Also, the inhibition at 100 µM on Aurora B kinase was 100%.
For `Cc1cc(Nc2nc(Sc3ccc(NC(=O)C4CC4)cc3)nc(C(=O)NCCN3CCOCC3)c2N)n[nH]1` [Compound 52, N-(2-Morpholin-4-ylethyl) 2-(4-cyclopropanecarboxamidophenylsulfanyl)-5-amino-6-(5-methylpyrazol-3-ylamino)-4-pyrimidinecarboxamide] the same measures were 100 to 1000 nM, under 100 nM and 100%.
`Cc1cc(Nc2nc(Sc3ccc(NC(=O)C4CC4)cc3)nc(C(=O)OCc3ccccc3)c2N)n[nH]1` [Compound 66, Benzyl 2-(4-cyclopropanecarboxamidophenylsulfanyl)-5-amino-6-(5-methylpyrazol-3-ylamino)-4-pyrimidinecarboxylate] yielded a GI50 in the experiment on HCT 116 Cells of 100 to 1000 nM. Moreover, the IC50 on recombinant Aurora A is under 100 nM.
`Cc1cc(Nc2nc(Sc3ccc(NC(=O)C4CC4)cc3)nc(C(=O)OCC[Si](C)(C)C)c2N)n[nH]1` [Compound 67] registered a GI50 in the experiment with HCT 116 Cells of 1000 to 10000 nM. The IC50 at recombinant Aurora A was in the range of 100 to 1000 nM.
For `Cc1cc(Nc2nc(Sc3ccc(NC(=O)C4CC4)cc3)nc(C(=O)N3CCN(C)CC3)c2N)n[nH]1` [Compound 68] the same measures were 1000 to 10000 nM and 1000 to 10000 nM.
